From patent publication US20260234157A1, “COMPOUND AND METHOD FOR TARGETED DEGRADATION OF ANDROGEN RECEPTOR” (Gan & Lee Pharmaceuticals Co., Ltd., priority 2023, published 2026)
Numbering of substitutions follows the chain as printed. Where two headings read alike, the source gives them in different places.

Legend:
Format in all cases: cell-based
AR protein [1] = target: T1, AR protein (Homo sapiens, UniProt P10275, T878A); assay: Degradation of AR protein in LNCaP cells (Western blot); details: for inhibition at 0.01 µM: read-out: Degradation rates of the AR protein in LNCaP cells, 10 nM (%); for inhibition at 0.1 µM: read-out: Degradation rates of the AR protein in LNCaP cells, 100 nM (%)
T1 construct: degradation activity of the compounds disclosed in the present disclosure on AR protein in LNCaP cells; host or cells: LNCaP FGC
T1 sequence (P10275 1-920 T878A): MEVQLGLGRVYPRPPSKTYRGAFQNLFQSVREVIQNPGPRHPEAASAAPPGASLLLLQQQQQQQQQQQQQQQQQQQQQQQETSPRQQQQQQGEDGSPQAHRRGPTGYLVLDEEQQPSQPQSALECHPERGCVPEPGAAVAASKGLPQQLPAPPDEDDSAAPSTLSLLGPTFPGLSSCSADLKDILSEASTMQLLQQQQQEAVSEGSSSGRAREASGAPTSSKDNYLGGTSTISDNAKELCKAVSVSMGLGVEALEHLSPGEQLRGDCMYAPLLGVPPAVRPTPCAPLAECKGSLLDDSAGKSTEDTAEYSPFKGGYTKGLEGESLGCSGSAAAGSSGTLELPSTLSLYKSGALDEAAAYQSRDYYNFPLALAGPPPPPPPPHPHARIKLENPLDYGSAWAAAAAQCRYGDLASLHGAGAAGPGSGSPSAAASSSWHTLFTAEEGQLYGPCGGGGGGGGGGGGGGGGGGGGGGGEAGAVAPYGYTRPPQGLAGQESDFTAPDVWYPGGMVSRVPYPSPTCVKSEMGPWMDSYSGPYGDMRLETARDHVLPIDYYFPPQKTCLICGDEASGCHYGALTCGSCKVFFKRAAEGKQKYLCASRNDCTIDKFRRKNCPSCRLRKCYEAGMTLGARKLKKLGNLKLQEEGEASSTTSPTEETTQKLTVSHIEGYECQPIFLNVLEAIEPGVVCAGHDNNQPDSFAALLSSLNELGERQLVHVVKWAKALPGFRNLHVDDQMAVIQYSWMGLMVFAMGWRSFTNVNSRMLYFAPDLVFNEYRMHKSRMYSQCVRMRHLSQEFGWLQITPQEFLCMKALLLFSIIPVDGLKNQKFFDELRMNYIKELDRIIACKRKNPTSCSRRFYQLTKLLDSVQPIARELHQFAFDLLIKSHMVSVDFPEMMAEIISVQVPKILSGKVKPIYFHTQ
How it was run: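 Percent AR degradation was derived from GAPDH-normalised Western blot band intensities (infrared detection) in LNCaP lysates.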

LNCaP FGC cells = assay: Inhibition of proliferation of LNCaP cells (WST-8); details: Homo sapiens, LNCaP, 96 h
Protocol: The cells were cultured in a cell culture incubator with 5% CO2 at 37° C. overnight. […] On the sixth day, 96 well plates were taken out, and 20 μL of WST-8 (Beytime, C0040) reagent was added to each well.

VCaP cells = assay: Inhibition of proliferation of VCaP cells (WST-8); details: Homo sapiens, read-out: IC50 for inhibiting the proliferation of VCaP cells
Protocol: The inhibitory activity of the compounds disclosed in the present disclosure on the proliferation of VCaP cells
On the first day of the experiment, […] were inoculated in 96 well plates at a density of 15000 cells per well using DMEM medium containing 10% fetal bovine serum, with 100 μL of cell suspension per well. The cells were cultured in a cell culture incubator with 5% CO2 at 37° C. overnight. […] On the ninth day, 96 well plates were taken out, and 20 μL of WST-8 (Beytime, C0040) reagent was added to each well.

AR protein [2] = target: T2, AR protein (Homo sapiens, UniProt P10275); assay: Degradation of AR protein in VCaP cells (Western blot); details: 8 hours; for inhibition at 0.01 µM: read-out: Degradation rate of the AR protein in VCaP cells, 10 nM (%); for inhibition at 0.1 µM: read-out: Degradation rate of the AR protein in VCaP cells, 100 nM (%)
T2 construct: degradation activity of the compounds disclosed in the present disclosure on AR protein in VCaP cells; host or cells: VCaP
T2 sequence (P10275 1-920): T1 sequence (P10275 1-920 T878A) with A878T
How it was run: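 Western blot readout: AR band grayscale normalised to GAPDH, used to derive degradation rate. Lysates came from VCaP cells exposed to compound for 8 h, with solvent controls run in parallel.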

[3] = LNCaP cells, compound 10 nM, 8 hours, Western blot grayscale, GAPDH internal reference
[4] = LNCaP cells, compound 100 nM, 8 hours, Western blot grayscale, GAPDH internal reference
[5] = LNCaP FGC cells, 96 hours, WST-8 absorbance at 450 nm, read-out: IC50 for inhibiting the proliferation of LNCaP cells
[6] = VCaP cells, 168 hours, WST-8 absorbance at 450 nm

SMILES	inhibition at 0.01 µM (AR protein [1]; [3]) [%]	inhibition at 0.1 µM (AR protein [1]; [4]) [%]	IC50 (LNCaP FGC cells; [5]) [nM]	IC50 (VCaP cells; [6]) [nM]	inhibition at 0.01 µM (AR protein [2]; compound at 10 nM) [%]	inhibition at 0.1 µM (AR protein [2]; compound at 100 nM) [%]	inhibition at 0.01 µM (AR protein [1]; LNCaP, 8 h) [%]	inhibition at 0.1 µM (AR protein [1]; LNCaP, 8 h) [%]	IC50 (LNCaP FGC cells; read-out: IC50 for inhibiting the proliferation of LNCaP cells, LNCaP FGC cells, 96 hours, WST-8 absorbance at 450 nm) [nM]	IC50 (VCaP cells; VCaP, 168 h) [nM]	Degradation rate of the AR protein in VCaP cells, 10 nM (%) (AR protein [2]; compound at 10 nM)	Degradation rate of the AR protein in VCaP cells, 100 nM (%) (AR protein [2]; compound at 100 nM)
COC1(CN2CCC3(CC2)COc2ccc4c(c2C3)C(=O)N(C2CCC(=O)NC2=O)C4)CCN(c2ccc(C(=O)N[C@H]3CC[C@H](Oc4ccc(C#N)c(Cl)c4)CC3)nn2)CC1 (stereo partly shown) [Compound 148]	38	36	8660	4010	18	35	–	–	–	–	–	–
COc1cc(O[C@H]2C(C)(C)[C@H](NC(=O)c3ccc(N4CCC(C#N)(CN5CCC6(CC5)COc5c6ccc6c5C(=O)N(C5CCC(=O)NC5=O)C6=O)CC4)cc3)C2(C)C)ccc1C#N (stereo partly shown) [Compound 207]	28	40	870	38	-46	37	–	–	–	–	–	–
COc1cc(O[C@H]2C(C)(C)[C@H](NC(=O)c3ccc(N4CCC(C)(CN5CC6(CCc7ccc8c(c7O6)C(=O)N(C6CCC(=O)NC6=O)C8=O)C5)CC4)cc3)C2(C)C)ccc1C#N (stereo partly shown) [Compound 290]	-14	18	60900	9420	-2	6	–	–	–	–	–	–
N#Cc1ccc(O[C@H]2CC[C@H](NC(=O)c3ccc(N4CC(N5CCC6(CCc7cc8c(cc7O6)C(=O)N(C6CCC(=O)NC6=O)C8=O)CC5)C4)nn3)CC2)cc1Cl (stereo partly shown) [Compound 25]	–	–	–	–	13	32	49	43	390	910	–	–
N#Cc1ccc(O[C@H]2CC[C@H](NC(=O)c3ccc(N4CC[C@H](CN5CCC6(CC5)COc5cc7c(cc56)C(=O)N(C5CCC(=O)NC5=O)C7=O)C4)nn3)CC2)cc1Cl (stereo partly shown) [Compound 58]	33	58	1800	69	91	93	–	–	–	–	–	–
N#Cc1ccc(O[C@H]2CC[C@H](NC(=O)c3ccc(N4CC5(CCC(N6CCC7(CC6)COc6cc8c(cc67)C(=O)N(C6CCC(=O)NC6=O)C8=O)CC5)C4)nn3)CC2)cc1Cl (stereo partly shown) [Compound 53]	69	85	380	43	62	71	–	–	–	–	–	–
N#Cc1ccc(O[C@H]2CC[C@H](NC(=O)c3ccc(N4CCC(O)(CN5CCC6(CC5)COc5c6ccc6c5C(=O)N(C5CCC(=O)NC5=O)C6=O)CC4)nn3)CC2)cc1C(F)(F)F (stereo partly shown) [Compound 214]	40	68	3780	48	7	63	–	–	–	–	–	–
CCOC1(CN2CCC3(CC2)COc2c3ccc3c2C(=O)N(C2CCC(=O)NC2=O)C3=O)CCN(c2ccc(C(=O)N[C@H]3CC[C@H](Oc4ccc(C#N)c(C(F)(F)F)c4)CC3)nn2)CC1 (stereo partly shown) [Compound 242]	-18	11	640	94	-5	15	–	–	–	–	–	–
N#Cc1ccc(O[C@H]2CC[C@H](NC(=O)c3ccc(N4CC(CN5CCC6(CCc7cc8c(cc7O6)C(=O)N(C6CCC(=O)NC6=O)C8=O)CC5)C4)nn3)CC2)cc1Cl (stereo partly shown) [Compound 20]	13	48	1000	170	41	54	–	–	–	–	–	–
COc1cc(O[C@H]2C(C)(C)[C@H](NC(=O)c3ccc(N4CCC(C)(CN5CCC6(CCc7cc8c(cc7O6)C(=O)N(C6CCC(=O)NC6=O)C8)CC5)CC4)cc3)C2(C)C)ccc1C#N (stereo partly shown) [Compound 267]	30	66	43200	4.5	30	69	–	–	–	–	–	–
COc1cc(O[C@H]2C(C)(C)[C@H](NC(=O)c3ccc(N4CCC(CN5CCC6(CCc7cc8c(cc7O6)CN(C6CCC(=O)NC6=O)C8=O)CC5)CC4)cc3)C2(C)C)ccc1C#N (stereo partly shown) [Compound 296]	53	63	6600	1	0	59	–	–	–	–	–	–
COc1cc(O[C@H]2C(C)(C)[C@H](NC(=O)c3ccc(N4CCC(F)(CN5CCC6(CC5)COc5cc7c(cc5C6)C(=O)N(C5CCC(=O)NC5=O)C7=O)CC4)cc3)C2(C)C)ccc1C#N (stereo partly shown) [Compound 271]	-3	10	37900	100	-47	-5	–	–	–	–	–	–
N#Cc1ccc(O[C@H]2CC[C@H](NC(=O)c3ccc(N4CCN(C(=O)CN5CCC6(CC5)COc5c6ccc6c5CN(C5CCC(=O)NC5=O)C6=O)CC4)nn3)CC2)cc1Cl (stereo partly shown) [Compound 233]	49	62	34300	43	74	87	–	–	–	–	–	–
N#Cc1ccc(O[C@H]2CC[C@H](NC(=O)c3ccc(N4CCC(C(=O)N5CCC(N6CCC7(CC6)COc6c7ccc7c6CN(C6CCC(=O)NC6=O)C7=O)CC5)CC4)nn3)CC2)cc1Cl (stereo partly shown) [Compound 161]	–	–	440	3	–	–	–	–	–	–	47	84
